According to patent US7585895B2, “Therapeutic substituted cyclopentanes” (Allergan, Inc., priority 2005, dated 2009):

Columns and labels:
[1] = target: T1, EP4 receptors (Homo sapiens, UniProt P35408); assay: Radioligand binding, [3H]PGE2, EP4 (Ki); conditions: HEK-293 cells stably expressing EP4, [3H]PGE2
T1 construct: expressed in transfected cells; membrane pellet
Protocol: (§1) HEK-293 cells stably expressing the human or feline FP receptor, or EP1, EP2, or EP4 receptors were washed with TME buffer, scraped from the bottom of the flasks, and homogenized for 30 sec using a Brinkman PT 10/35 polytron. TME buffer was added to achieve a final 40 ml volume in the centrifuge tubes (the composition of TME is 100 mM TRIS base, 20 mM MgCl2, […]; 10N HCl is added to achieve a pH of 7.4).
(§2) The cell homogenate was centrifuged at 19000 r.p.m. for 20 min at 4° C using a Beckman Ti-60 rotor. The resultant pellet was resuspended in TME buffer to give a final 1 mg/ml protein concentration, as determined by Biorad assay. Radioligand binding competition assays vs. [^3H-]17-phenyl PGF2α. (5 nM) were performed in a 100 μl volume for 60 min. Binding reactions were started by adding plasma membrane fraction. The reaction was terminated by the addition of 4 ml ice-cold TRIS-HCl buffer and rapid filtration through glass fiber GF/B filters using a Brandel cell harvester. The filters were washed 3 times with ice-cold buffer and oven dried for one hour.
(§3) [^3H-] PGE2 (specific activity 180 Ci mmol) was used as the radioligand for EP receptors. [^3H] 17-phenyl PGF2α, was employed for FP receptor binding studies. Binding studies employing EP1, EP2, EP4 and FP receptors were performed in duplicate in at least three separate experiments. A 200 μl assay volume was used. Incubations were for 60 min at 25° C. and were terminated by the addition of 4 ml of ice-cold 50 mM TRIS-HCl, followed by rapid filtration through Whatman GF/B filters and three additional 4 ml washes in a cell harvester (Brandel). Competition studies were performed using a final concentration of 5 nM [^3H]-PGE2, or 5 nM [^3H] 17-phenyl PGF2αand non-specific binding determined with 10^−5M of unlabeled PGE2, or 17-phenyl PGF2α, according to receptor subtype studied.

[2] = target: T2, hEP2/Gqs5 (Homo sapiens, UniProt P43116); assay: FLIPR calcium signal, EP2; format: cell-based; conditions: HEK-293(EBNA), value outside parentheses, read-out: Ca2+ Signal-EC50 (nM) EP2
T2 construct: expressed in transfected cells
Protocol: (§4) HEK-293(EBNA) cells, stably expressing one type or subtype of recombinant human prostaglandin receptors (prostaglandin receptors expressed: hDP/Gqs5; hEP1; hEP2/Gqs5; hEP3A/Gqi5; hEP4/Gqs5; hFP; hIP; hTP), were cultured in 100 mm culture dishes in high-glucose DMEM medium containing 10% fetal bovine serum, 2 mM 1-glutamine, 250 μg/ml geneticin (G418) and 200 μg/ml hygromycin B as selection markers, and 100 units/ml penicillin G, 100 μg/ml streptomycin and 0.25 μg/ml amphotericin B.
(§5) Cells were seeded at a density of 5×10^4 cells per well in Biocoat® Poly-D-lysine-coated black-wall, clear-bottom 96-well plates (Becton-Dickinson) and allowed to attach overnight in an incubator at 37° C. Cells were then washed two times with HBSS-HEPES buffer (Hanks Balanced Salt Solution without bicarbonate and phenol red, 20 mM HEPES, pH 7.4) using a Denley Cellwash plate washer (Labsystems). After 45 minutes of dye-loading in the dark, using the calcium-sensitive dye Fluo-4 AM at a final concentration of 2 μM, plates were washed four times with HBSS-HEPES buffer to remove excess dye leaving 100 μl in each well. Plates were re-equilibrated to 37° C. for a few minutes.
(§6) Cells were excited with an Argon laser at 488 nm, and emission was measured through a 510-570 nm bandwidth emission filter (FLIPR™, Molecular Devices, Sunnyvale, Calif.). Drug solution was added in a 50 μl volume to each well to give the desired final concentration. The peak increase in fluorescence intensity was recorded for each well. On each plate, four wells each served as negative (HBSS-HEPES buffer) and positive controls (standard agonists: BW245C (hDP); PGE2 (HEP1; hEP2/Gqs5; hEP3A/Gqi5; hEP4/Gqs5); PGF2α (hFP); carbacyclin (hIP); U-46619 (hTP), depending on receptor). The peak fluorescence change in each drug-containing well was then expressed relative to the controls.
(§7) Compounds were tested in a high-throughput (HTS) or concentration-response (CoRe) format. In the HTS format, forty-four compounds per plate were examined in duplicates at a concentration of 10^−5 M. To generate concentration-response curves, four compounds per plate were tested in duplicates in a concentration range between 10^−5 and 10^−11 M. The duplicate values were averaged. In either, HTS or CoRe format each compound was tested on at least 3 separate plates using cells from different passages to give an n≧3.

[3] = target: T3, hEP4/Gqs5 (Homo sapiens, UniProt P35408); assay: FLIPR calcium signal, EP4; format: cell-based; conditions: HEK-293(EBNA)
T3 construct: expressed in transfected cells
Protocol: as §4, §5, §6, §7

[4] = target: T4, EP2 (Homo sapiens, UniProt P43116); assay: cAMP assay, HEK-EBNA cells expressing EP2; format: cell-based; parameters: expressed in transfected cells; host or cells: HEK-EBNA; conditions: value in parentheses in EP2 column, read-out: EP2 EC50 (nM), measurement of cAMP (data in parentheses)
Protocol: A 384-well drug plate was prepared to contain 6 test compounds, PGE2 and cAMP in 16 serial dilutions in triplicate, using a Biomek station. HEK-EBNA cells expressing a target PG receptor subtype (EP2 or EP4) were suspended in a stimulation buffer (HBSS, 0.1% BSA, 0.5 mM IBMX and 5 mM HEPES, pH 7.4) in a density of 10^4 cells/5 μl. The reaction was initiated by mixing 5 μL drug dilutions with 5 μl of HEK-EBNA cells in a well, carried out for 30 min at room temperature, and followed by the addition of 5 μl anti-cAMP acceptor beads in the control buffer with Tween-20 (25 mM NaCl, 0.03% Tween-20, 5 mM HEPES, pH7.4). After 30 min in the dark at room temperature, the mixtures were incubated with 15 μl biotinylated-cAMP/strepavidin donor beads in Lysis/Detection buffer (0.1% BSA, 0.3% Tween-20 and 5 mM HEPES, pH7.4) for 45 min at the room temperature. Fluorescence changes were read using a Fusion-alpha HT microplate reader.

[5] = target: T4, EP2; assay: Competition binding, [3H]PGE2, EP2 (Ki); parameters: expressed in transfected cells; membranes or whole cells; conditions: HEK 293 cells stably expressing human EP2, [3H]PGE2
Protocol: Competition binding experiments were performed in a medium containing Hank's balanced salt solution, Hepes 20 mM, pH 7.3, membranes (˜60 μg protein) or 2×10^5 cells from HEK 293 cells stably expressing human EP2 receptors, [^3H]PGE2 (10 nM) and various concentrations of test compounds in a total volume of 300 μl. Reaction mixtures were incubated at 23° C. for 60 min, and were filtered over Whatman GF/B filters under vacuum. Filters were washed three times with 5 ml ice-cold buffer containing 50 mM Tris/HCl (pH 7.3). Non-specific binding was estimated in the presence of excess unlabeled PGE2 (10 μM). Binding data fitted to the binding model for a single class of binding sites, using nonlinear regression analysis. IC50 values thus obtained were converted to Ki using the equation of Ki=(IC50/(1+[L]/KD) where [L] represents PGE2 concentration (10 nM) and KD the dissociation constant for [^3H]PGE2 at human EP2 receptors (40 nM).
as §1, §2, §3

[6] = target: T5, hFP (Homo sapiens, UniProt P43088); assay: FLIPR calcium signal, FP; format: cell-based; conditions: HEK-293(EBNA)
T5 construct: expressed in transfected cells
Protocol: as §4, §5, §6, §7

[7] = target: T6, hEP1 (Homo sapiens, UniProt P34995); assay: FLIPR calcium signal, EP1; format: cell-based; conditions: HEK-293(EBNA)
T6 construct: expressed in transfected cells
T6 sequence (P34995 1-402): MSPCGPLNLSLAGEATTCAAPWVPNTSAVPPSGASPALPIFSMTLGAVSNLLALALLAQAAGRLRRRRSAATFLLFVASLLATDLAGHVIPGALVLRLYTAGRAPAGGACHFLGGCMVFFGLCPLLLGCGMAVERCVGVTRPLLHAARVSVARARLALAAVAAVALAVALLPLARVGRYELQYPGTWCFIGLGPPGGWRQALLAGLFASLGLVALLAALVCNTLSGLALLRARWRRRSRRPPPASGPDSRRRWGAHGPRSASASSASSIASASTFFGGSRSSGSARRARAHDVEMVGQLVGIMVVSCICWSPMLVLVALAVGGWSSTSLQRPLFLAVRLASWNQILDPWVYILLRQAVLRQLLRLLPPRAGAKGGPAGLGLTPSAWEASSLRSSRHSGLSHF
Protocol: as §4, §5, §6, §7

[8] = target: T7, hEP3A/Gqi5 (Homo sapiens, UniProt P43115); assay: FLIPR calcium signal, EP3; format: cell-based; conditions: HEK-293(EBNA)
T7 construct: expressed in transfected cells
T7 sequence (P43115 1-390): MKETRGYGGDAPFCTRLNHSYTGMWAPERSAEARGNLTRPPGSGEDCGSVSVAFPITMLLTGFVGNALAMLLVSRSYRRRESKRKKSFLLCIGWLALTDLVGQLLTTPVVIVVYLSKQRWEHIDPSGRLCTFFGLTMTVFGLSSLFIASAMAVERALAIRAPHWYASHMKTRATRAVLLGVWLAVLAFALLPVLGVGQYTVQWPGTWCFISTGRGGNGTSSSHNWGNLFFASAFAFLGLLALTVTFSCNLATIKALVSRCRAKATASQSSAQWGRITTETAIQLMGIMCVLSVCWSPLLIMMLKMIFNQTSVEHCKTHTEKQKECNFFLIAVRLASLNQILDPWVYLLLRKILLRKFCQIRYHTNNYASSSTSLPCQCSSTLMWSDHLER
Protocol: as §4, §5, §6, §7

[9] = target: T8, hTP (Homo sapiens, UniProt P21731); assay: FLIPR calcium signal, TP; format: cell-based; conditions: HEK-293(EBNA)
T8 construct: expressed in transfected cells
T8 sequence (P21731 1-343): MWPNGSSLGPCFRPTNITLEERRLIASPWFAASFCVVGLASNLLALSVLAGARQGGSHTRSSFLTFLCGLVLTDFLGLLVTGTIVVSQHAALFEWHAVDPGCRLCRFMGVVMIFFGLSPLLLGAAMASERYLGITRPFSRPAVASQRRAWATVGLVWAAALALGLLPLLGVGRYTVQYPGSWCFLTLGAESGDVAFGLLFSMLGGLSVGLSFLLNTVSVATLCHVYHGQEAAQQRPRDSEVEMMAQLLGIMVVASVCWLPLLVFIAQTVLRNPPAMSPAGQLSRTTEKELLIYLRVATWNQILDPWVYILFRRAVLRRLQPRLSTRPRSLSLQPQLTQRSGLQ
Protocol: as §4, §5, §6, §7

[10] = target: T9, hIP (Homo sapiens, UniProt P43119); assay: FLIPR calcium signal, IP; format: cell-based; conditions: HEK-293(EBNA)
T9 construct: expressed in transfected cells
Protocol: as §4, §5, §6, §7

[11] = target: T10, hDP/Gqs5 (Homo sapiens, UniProt Q13258); assay: FLIPR calcium signal, DP; format: cell-based; conditions: HEK-293(EBNA)
T10 construct: expressed in transfected cells
T10 sequence (Q13258 1-359): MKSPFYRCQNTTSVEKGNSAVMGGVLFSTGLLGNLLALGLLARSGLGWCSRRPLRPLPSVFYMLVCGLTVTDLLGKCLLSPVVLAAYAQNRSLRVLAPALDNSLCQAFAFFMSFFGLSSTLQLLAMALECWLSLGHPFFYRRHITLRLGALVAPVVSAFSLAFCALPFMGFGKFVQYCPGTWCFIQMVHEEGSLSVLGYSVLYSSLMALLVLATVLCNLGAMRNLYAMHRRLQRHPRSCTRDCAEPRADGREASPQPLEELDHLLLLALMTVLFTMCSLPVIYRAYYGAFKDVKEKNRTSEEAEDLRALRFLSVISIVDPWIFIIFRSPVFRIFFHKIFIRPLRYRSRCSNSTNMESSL
Protocol: as §4, §5, §6, §7

[12] = Dog intraocular pressure (Max. ΔIOP); format: in vivo; conditions: Canis lupus familiaris, Conc. 0.1 g/100 mL
[13] = Dog ocular hyperemia; format: in vivo; conditions: Conc. 0.1 g/100 mL
[14] = Monkey intraocular pressure (Max. ΔIOP); format: in vivo; conditions: Primates, Conc. 0.1 g/100 mL

T3 sequence (P35408 whole entry): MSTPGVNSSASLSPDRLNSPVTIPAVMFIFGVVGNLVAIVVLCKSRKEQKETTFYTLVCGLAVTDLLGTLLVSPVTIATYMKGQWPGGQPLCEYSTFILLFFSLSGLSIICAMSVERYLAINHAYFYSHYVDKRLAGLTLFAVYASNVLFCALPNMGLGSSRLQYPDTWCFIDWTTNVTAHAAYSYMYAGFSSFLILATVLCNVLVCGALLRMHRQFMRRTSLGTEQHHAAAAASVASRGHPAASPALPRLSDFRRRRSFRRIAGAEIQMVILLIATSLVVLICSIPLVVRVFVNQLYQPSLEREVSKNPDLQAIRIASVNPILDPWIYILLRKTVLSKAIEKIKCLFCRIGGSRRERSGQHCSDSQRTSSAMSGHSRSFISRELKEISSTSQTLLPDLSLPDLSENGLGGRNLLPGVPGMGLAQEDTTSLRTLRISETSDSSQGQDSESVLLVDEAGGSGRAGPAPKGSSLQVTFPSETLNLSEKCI
T2 sequence (P43116 whole entry): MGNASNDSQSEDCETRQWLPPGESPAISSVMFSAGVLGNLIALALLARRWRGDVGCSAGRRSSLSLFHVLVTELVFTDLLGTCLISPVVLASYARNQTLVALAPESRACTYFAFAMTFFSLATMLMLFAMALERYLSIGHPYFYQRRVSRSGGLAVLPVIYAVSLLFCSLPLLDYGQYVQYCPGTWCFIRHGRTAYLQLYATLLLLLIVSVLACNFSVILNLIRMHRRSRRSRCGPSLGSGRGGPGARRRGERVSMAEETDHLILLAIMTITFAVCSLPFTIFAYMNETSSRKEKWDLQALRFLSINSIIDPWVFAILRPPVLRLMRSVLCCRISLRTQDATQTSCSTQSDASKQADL
T9 sequence (P43119 whole entry): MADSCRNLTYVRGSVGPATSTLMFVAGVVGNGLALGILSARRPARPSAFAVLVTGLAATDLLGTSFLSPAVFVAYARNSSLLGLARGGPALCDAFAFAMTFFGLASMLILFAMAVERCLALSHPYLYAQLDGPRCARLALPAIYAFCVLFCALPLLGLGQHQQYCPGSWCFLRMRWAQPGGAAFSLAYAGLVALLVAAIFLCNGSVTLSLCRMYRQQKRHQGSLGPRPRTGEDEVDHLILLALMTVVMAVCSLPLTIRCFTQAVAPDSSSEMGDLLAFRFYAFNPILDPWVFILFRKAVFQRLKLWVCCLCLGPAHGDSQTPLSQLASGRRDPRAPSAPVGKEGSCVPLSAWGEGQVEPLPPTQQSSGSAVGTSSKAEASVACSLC
T4 sequence (P43116 whole entry): as the sequence (P43116 whole entry) above
T5 sequence (P43088 whole entry): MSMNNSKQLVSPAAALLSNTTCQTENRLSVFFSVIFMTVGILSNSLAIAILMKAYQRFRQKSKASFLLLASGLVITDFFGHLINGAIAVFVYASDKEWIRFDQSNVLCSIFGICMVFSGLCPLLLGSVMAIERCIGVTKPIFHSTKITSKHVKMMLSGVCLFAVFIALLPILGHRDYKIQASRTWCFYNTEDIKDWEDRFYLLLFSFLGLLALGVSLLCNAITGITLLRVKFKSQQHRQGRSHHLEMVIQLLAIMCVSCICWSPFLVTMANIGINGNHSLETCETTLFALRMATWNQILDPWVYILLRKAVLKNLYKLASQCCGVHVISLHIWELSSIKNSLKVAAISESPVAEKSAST
T1 sequence (P35408 whole entry): as the sequence (P35408 whole entry) above

CC(C)(C)CCCC(O)c1ccc([C@@H]2[C@@H](C/C=C\CCCC(=O)O)[C@H](Cl)C[C@H]2O)cc1 (stereo partly drawn) [Entry 19, (Z)-7-{(1R,2S,3R,5R)-5-Chloro-3-hydroxy-2-[4-(1-hydroxy-5,5-dimethyl-hexyl)-phenyl]-cyclopentyl}-hept-5-enoic acid]
Ki [1]: 6290 nM
EC50 [2]: > 10000 nM
EC50 ([3]; read-out: Ca2+ Signal-EC50 (nM) EP4): > 10000 nM
EC50 [4]: 815 nM
Ki [5]: 1050 nM

CCCCCC(O)c1ccc([C@@H]2[C@@H](C/C=C\CCCC(=O)OC)[C@H](Cl)C[C@H]2O)cc1 (mixture of isomers) [Entry 10, (Z)-7-{(1R,2S,3R,5R)-5-Chloro-3-hydroxy-2-[4-(1-hydroxy-hexyl)-phenyl]-cyclopentyl}-hept-5-enoic acid methyl ester]
Ca2+ Signal-EC50 (nM) FP [6]: not active
Ca2+ Signal-EC50 (nM) EP1 [7]: not active
EC50 [2]: 3960 nM
Ca2+ Signal-EC50 (nM) EP3 [8]: not active
Ca2+ Signal-EC50 (nM) EP4 [3]: not active
Ca2+ Signal-EC50 (nM) TP [9]: not active
Ca2+ Signal-EC50 (nM) IP [10]: not active
Ca2+ Signal-EC50 (nM) DP [11]: not active

CCCCCC(O)c1ccc([C@@H]2[C@@H](CCCc3cccc(C(=O)O)c3)[C@H](Cl)C[C@H]2O)cc1 (stereo partly drawn) [Entry 1, 3-(3-{(1R,2S,3R,5R)-5-Chloro-3-hydroxy-2-[4-(1-hydroxy-hexyl)-phenyl]-cyclopentyl}-propyl)-benzoic acid]
Ca2+ Signal-EC50 (nM) FP [6]: not active
EC50 ([7]; read-out: Ca2+ Signal-EC50 (nM) EP1): 917 nM
EC50 [2]: 2450 nM
EC50 ([8]; read-out: Ca2+ Signal-EC50 (nM) EP3): 4150 nM
Ca2+ Signal-EC50 (nM) EP4 [3]: not active
Ca2+ Signal-EC50 (nM) TP [9]: not active
Ca2+ Signal-EC50 (nM) IP [10]: not active
Ca2+ Signal-EC50 (nM) DP [11]: not active

CCCCCCc1ccc([C@@H]2[C@@H](C/C=C\CCCC(=O)OC(C)C)[C@H](Cl)C[C@H]2O)cc1 [compound 7]
change in vivo at 1000 µg/mL [12]: 20%
DOG Max. hpyeremia [13]: 0.5
change in vivo at 1000 µg/mL [14]: 21%
